IC50, Kd and logP data for 18 molecules are collected here from ChEMBL document CHEMBL5550126, “Identification of naphthalimide-derivatives as novel PBD-targeted polo-like kinase 1 inhibitors with efficacy in drug-resistant lung cancer cells” (Eur J Med Chem, 2024).

Each structure is given as a SMILES string. A value given as a limit tells only on which side of the number the result lay.

One data set deals with NCI-H460. Nature of the data set: Anticancer activity against human NCI-H460 cells assessed as inhibition of cell growth incubated for 48 hrs by crystal violet staining based analysis. In kind it is functional. The conditions noted are these: NCI-H460, 48 h.
A further data set relates to SK-OV-3. Put plainly: Anticancer activity against human SK-OV-3 cells assessed as inhibition of cell growth incubated for 48 hrs by crystal violet staining based analysis. The conditions noted are these: SK-OV-3, 48 h. It is filed as functional.
The next data set concerns MCF7. Put plainly: Anticancer activity against human MCF7 cells assessed as inhibition of cell growth incubated for 48 hrs by crystal violet staining based analysis. The conditions noted are these: MCF7, 48 h. It is filed as functional.
Another data set deals with MGC-803. Nature of the data set: Anticancer activity against human MGC-803 cells assessed as inhibition of cell growth incubated for 48 hrs by crystal violet staining based analysis. It is filed as functional. The settings on record: MGC-803, 48 h.
The target in data set [1] is Serine/threonine-protein kinase PLK1 (Homo sapiens, UniProt P53350). Nature of the data set: Binding affinity to recombinant PLK1 (unknown origin) assessed as dissociation constant by SPR analysis. For orientation: In SPR one partner is held on a chip, and binding of the other changes the refractive index at the surface.
Another data set has as its system T-24. Nature of the data set: Anticancer activity against human T24 cells assessed as inhibition of cell growth incubated for 48 hrs by crystal violet staining based analysis. The conditions noted are these: T-24, 48 h. It is filed as functional.
For another data set, the system named is A549/CDDP. Put plainly: Anticancer activity against human A549/DDP cells assessed as inhibition of cell growth incubated for 48 hrs by crystal violet staining based analysis. It is filed as functional.
A short description of data set [2]: Octanol-water partition coefficient, logP of the compound. It is filed as physicochemical.

Sequence of Serine/threonine-protein kinase PLK1 (P53350 whole entry): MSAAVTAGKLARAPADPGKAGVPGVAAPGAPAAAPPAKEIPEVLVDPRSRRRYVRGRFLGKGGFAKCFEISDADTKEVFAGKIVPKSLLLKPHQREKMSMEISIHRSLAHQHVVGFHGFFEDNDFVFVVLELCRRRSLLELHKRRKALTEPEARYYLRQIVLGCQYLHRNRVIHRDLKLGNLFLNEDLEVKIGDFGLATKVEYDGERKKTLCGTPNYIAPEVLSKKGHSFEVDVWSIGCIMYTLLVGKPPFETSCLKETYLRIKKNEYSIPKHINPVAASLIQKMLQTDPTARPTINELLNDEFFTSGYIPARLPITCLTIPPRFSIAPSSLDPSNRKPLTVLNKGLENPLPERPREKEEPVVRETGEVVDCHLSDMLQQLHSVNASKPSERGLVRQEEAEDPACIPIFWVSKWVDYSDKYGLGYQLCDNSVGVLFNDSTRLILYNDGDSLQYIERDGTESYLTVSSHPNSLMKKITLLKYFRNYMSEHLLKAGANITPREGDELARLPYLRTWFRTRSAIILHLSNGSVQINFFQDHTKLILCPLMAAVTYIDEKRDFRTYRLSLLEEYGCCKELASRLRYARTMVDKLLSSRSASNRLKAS

For orientation: IC50 means the concentration at which inhibition is half-maximal. What is called Kd is a measure of binding affinity in units of concentration. `CN(C)CCN1C(=O)c2cccc3c(S(=O)(=O)NCc4cccc(F)c4)ccc(c23)C1=O`: the IC50 amounted to 9.77 µM with NCI-H460; 3.11 µM with SK-OV-3; 7.29 µM in the data set on MCF7; 4.98 µM in the data set with MGC-803; 2.97 µM with T-24. The dissociation constant (Kd) in data set [1] was found to be 17.5 µM.
As to `CN(C)CCN1C(=O)c2cccc3c(S(=O)(=O)NCc4ccc(C(F)(F)F)cc4)ccc(c23)C1=O`, the IC50 worked out at 8.28 µM in the data set with NCI-H460; 7.42 µM with SK-OV-3; 6.24 µM with MCF7; 5.95 µM in the data set on MGC-803; 2.57 µM in the data set on T-24. The Kd in data set [1] came out at 5.26 µM.
Take `COc1ccc(CNS(=O)(=O)c2ccc3c4c(cccc24)C(=O)N(CCN(C)C)C3=O)cc1`: the IC50 in the data set on NCI-H460 is 9.37 µM; in the data set with SK-OV-3, 4.99 µM; with MCF7, 10.2 µM; in the data set with MGC-803, 6.44 µM; in the data set on T-24 it was 5.31 µM. The Kd in data set [1] was 8.06 µM.
For `CC[C@@H]1C(=O)N(C)c2cnc(Nc3ccc(C(=O)N[C@H]4CC[C@H](N5CCN(CC6CC6)CC5)CC4)cc3OC)nc2N1C(C)C` [VOLASERTIB], the Kd in data set [1] amounted to 0.9 µM.
In the case of `CN(C)CCN1C(=O)c2cccc3c(S(=O)(=O)NCc4ccccc4F)ccc(c23)C1=O`, the IC50 in the data set on NCI-H460 came out at 10.8 µM; in the data set on SK-OV-3 it was 2.95 µM; in the data set with MCF7, 5.38 µM; with MGC-803 it was 5.46 µM; with T-24, 3.86 µM. For the same molecule, the Kd in data set [1] stood at 2.79 µM.
As for `Cc1ccc(CNS(=O)(=O)c2ccc3c4c(cccc24)C(=O)N(CCN2CCCCC2)C3=O)cc1`, the IC50 in the data set with NCI-H460 was found to be 4.8 µM; in the data set on SK-OV-3 it was 10.7 µM; in the data set with MCF7 it was 4.55 µM; in the data set with MGC-803, 7.29 µM; in the data set on T-24 it was 9.09 µM. For the same molecule, the Kd in data set [1] is 20.9 µM.
For the molecule `Cc1ccc(CNS(=O)(=O)c2ccc3c4c(cccc24)C(=O)N(CCN2CCCC2)C3=O)cc1`, the IC50 was 8.25 µM with NCI-H460; 3.98 µM with SK-OV-3; 6.75 µM in the data set on MCF7; 4.17 µM with MGC-803; 5.53 µM in the data set with T-24. Besides, in data set [1], the dissociation constant Kd is 17.3 µM.
As for `Cc1ccc(CNS(=O)(=O)c2ccc3c4c(cccc24)C(=O)N(CCN(C)C)C3=O)cc1`, the IC50 with NCI-H460 was found to be 12.5 µM; in the data set with SK-OV-3, 6.64 µM; in the data set on MCF7, 10.5 µM; with MGC-803, 7.4 µM; in the data set on T-24, 5.89 µM. For the same molecule, the Kd in data set [1] worked out at 14.2 µM.
As to `O=C1c2cccc3c(S(=O)(=O)NCc4ccc(F)cc4)ccc(c23)C(=O)N1CCN1CCCC1`, the IC50 in the data set on NCI-H460 amounted to 2.8 µM; in the data set on SK-OV-3, 4.5 µM; in the data set with MCF7, 3.29 µM; in the data set with MGC-803 it was 3.41 µM; with T-24, 2.51 µM. In data set [1], the Kd is 2.15 µM.
Take `O=C1c2cccc3c(S(=O)(=O)NCc4ccc(F)cc4)ccc(c23)C(=O)N1CCN1CCCCC1`: the IC50 in the data set with NCI-H460 turned out to be 4.28 µM; with SK-OV-3 it was 8.53 µM; in the data set with MCF7, 9.62 µM; with MGC-803 it was 5.43 µM; in the data set with T-24, 1.76 µM. Further, the Kd in data set [1] was 3.95 µM.
For `O=C1c2cccc3c(S(=O)(=O)NCc4ccc(C(F)(F)F)cc4)ccc(c23)C(=O)N1CCN1CCCCC1`, the IC50 came out at 4.29 µM with NCI-H460; 9.21 µM in the data set on SK-OV-3; 16.9 µM with MCF7; 5.56 µM in the data set on MGC-803; 8.19 µM in the data set with T-24. For the same molecule, in data set [1], the Kd came out at 4.24 µM.
As for `O=C1c2cccc3c(S(=O)(=O)NCc4ccccc4)ccc(c23)C(=O)N1CCN1CCCCC1`, the IC50 in the data set with NCI-H460 worked out at 8.17 µM; in the data set with SK-OV-3, 12 µM; with MCF7, 15.4 µM; in the data set on MGC-803, 5.16 µM; in the data set with T-24, 2.75 µM. For the same molecule, in data set [1], the Kd was 2.03 µM.
What is called logP is a log measure of how a compound divides between an organic and an aqueous phase. A higher logP goes with higher lipophilicity. For `O=C1c2cccc3c(Sc4ccc([N+](=O)[O-])cc4)ccc(c23)C(=O)N1CCN1CCCC1`, the IC50 is 15.6 µM with NCI-H460; 12.2 µM with SK-OV-3; greater than 20 µM with A549/CDDP; 10.8 µM with MCF7; 11.2 µM in the data set on MGC-803; 9.23 µM in the data set with T-24. Besides, in data set [2], the logP was found to be 4.26. Moreover, the Kd in data set [1] came out at 15.4 µM.
Take `O=C1c2cccc3c(S(=O)(=O)NCc4ccc(C(F)(F)F)cc4)ccc(c23)C(=O)N1CCN1CCCC1`: the IC50 in the data set on NCI-H460 was found to be 4.77 µM; in the data set with SK-OV-3, 4.22 µM; with MCF7, 5.01 µM; in the data set on MGC-803, 3.38 µM; in the data set on T-24, 4.99 µM. Also, in data set [1], the Kd is 7.36 µM.
As to `COc1ccc(CNS(=O)(=O)c2ccc3c4c(cccc24)C(=O)N(CCN2CCCCC2)C3=O)cc1`, the IC50 was determined as 5 µM in the data set on NCI-H460; 20.5 µM in the data set with SK-OV-3; 18.2 µM in the data set with MCF7; 8.1 µM in the data set on MGC-803; 4.51 µM with T-24. For the same molecule, the Kd in data set [1] turned out to be 20.1 µM.
With `CN(C)CCN1C(=O)c2cccc3c(S(=O)(=O)NCc4ccccc4)ccc(c23)C1=O`, the IC50 was found to be 11.5 µM in the data set on NCI-H460; 1.8 µM in the data set with SK-OV-3; 14.7 µM in the data set on MCF7; 3.71 µM in the data set on MGC-803; 7.11 µM in the data set with T-24. Moreover, in data set [1], the Kd came to 16.8 µM.
In the case of `O=C1c2cccc3c(S(=O)(=O)NCc4ccccc4)ccc(c23)C(=O)N1CCN1CCCC1`, the half-maximal inhibitory concentration (IC50) in the data set with NCI-H460 came out at 17.6 µM; in the data set with SK-OV-3, 7.05 µM; with MCF7, 10.3 µM; with MGC-803, 4.96 µM; in the data set on T-24, 4.07 µM. For the same molecule, in data set [1], the equilibrium dissociation constant (Kd) was found to be 19.2 µM.
With `COc1ccc(CNS(=O)(=O)c2ccc3c4c(cccc24)C(=O)N(CCN2CCCC2)C3=O)cc1`, the IC50 in the data set with NCI-H460 was found to be 5.37 µM; with SK-OV-3 it was 5.19 µM; in the data set with MCF7, 10.3 µM; in the data set on MGC-803, 4.04 µM; in the data set on T-24 it was 8.6 µM. Further, the Kd in data set [1] amounted to 16.8 µM.
